We go through eleven compounds from paper PMC5295242, “Synthesis of Natural O-Linked Carba-Disaccharides, (+)- and (−)-Pericosine E, and Their Analogues as α-Glucosidase Inhibitors” (Marine Drugs, 2017).

As usually defined, the IC50 is the concentration needed to halve the response being measured.

The target in one assay is α-glucosidase (yeast) (Saccharomyces cerevisiae, UniProt P53341). As to the kind of experiment: α-glucosidase inhibition assay (p-nitrophenyl α-D-glucopyranoside substrate). In kind it is biochemical. To be noted: yeast enzyme; relative to positive control DNJ. The procedure: (§1) Eight samples synthesized here were used in a biological assay against three glycosidases, namely α-glucosidase (yeast), β-glucosidase (sweet almond), and α-mannosidase (Jack bean).
Sequence of α-glucosidase (yeast) (P53341 whole entry): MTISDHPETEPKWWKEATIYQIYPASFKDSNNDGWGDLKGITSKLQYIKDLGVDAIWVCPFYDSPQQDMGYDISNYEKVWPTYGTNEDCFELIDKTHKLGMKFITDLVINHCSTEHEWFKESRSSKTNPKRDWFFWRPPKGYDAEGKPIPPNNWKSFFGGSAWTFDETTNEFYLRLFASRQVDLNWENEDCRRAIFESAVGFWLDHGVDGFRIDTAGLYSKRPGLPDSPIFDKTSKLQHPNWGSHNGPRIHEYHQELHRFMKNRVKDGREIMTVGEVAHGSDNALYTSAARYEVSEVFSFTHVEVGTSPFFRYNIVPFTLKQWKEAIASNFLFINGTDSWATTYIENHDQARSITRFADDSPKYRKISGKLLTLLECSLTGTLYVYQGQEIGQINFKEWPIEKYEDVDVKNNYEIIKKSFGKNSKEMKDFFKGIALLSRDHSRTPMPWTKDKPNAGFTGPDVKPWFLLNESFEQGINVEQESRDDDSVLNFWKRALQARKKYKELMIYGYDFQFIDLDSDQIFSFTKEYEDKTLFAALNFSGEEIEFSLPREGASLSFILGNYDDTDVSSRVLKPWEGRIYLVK
(§2) After incubation for 20 min at 37 °C, the reaction was interrupted by the addition of 0.5 M sodium carbonate (100 μL). The amount of p-nitrophenol liberated was measured colorimetrically at 400 nm (optical density at 400 nm: ODtest). […] Assays for β-glucosidase and α-mannosidase were carried out as outlined above using p-nitrophenyl β-D-glucopyranoside and α-D-mannopyranoside as the substrates.

Assay [1] concerns the target β-glucosidase (sweet almond). The assay can be described thus: β-glucosidase inhibition assay (p-nitrophenyl β-D-glucopyranoside substrate). To be noted: sweet almond enzyme; NI = no inhibition. It is filed as biochemical. The procedure:
as §1, §2
(§3) Assays on β-glucosidase and α-mannnosidase inhibition of synthesized carbadisaccharides 6 and 21–23 were carried out in a similar fashion.

The target in assay [2] is T1, α-mannosidase (Jack bean) (Canavalia ensiformis, UniProt C0HJB3).
T1 construct: purchased Sigma-Aldrich Co. LLC. lot; 055K7047 (catalogue number not given)
T1 sequence (C0HJB3 1-981): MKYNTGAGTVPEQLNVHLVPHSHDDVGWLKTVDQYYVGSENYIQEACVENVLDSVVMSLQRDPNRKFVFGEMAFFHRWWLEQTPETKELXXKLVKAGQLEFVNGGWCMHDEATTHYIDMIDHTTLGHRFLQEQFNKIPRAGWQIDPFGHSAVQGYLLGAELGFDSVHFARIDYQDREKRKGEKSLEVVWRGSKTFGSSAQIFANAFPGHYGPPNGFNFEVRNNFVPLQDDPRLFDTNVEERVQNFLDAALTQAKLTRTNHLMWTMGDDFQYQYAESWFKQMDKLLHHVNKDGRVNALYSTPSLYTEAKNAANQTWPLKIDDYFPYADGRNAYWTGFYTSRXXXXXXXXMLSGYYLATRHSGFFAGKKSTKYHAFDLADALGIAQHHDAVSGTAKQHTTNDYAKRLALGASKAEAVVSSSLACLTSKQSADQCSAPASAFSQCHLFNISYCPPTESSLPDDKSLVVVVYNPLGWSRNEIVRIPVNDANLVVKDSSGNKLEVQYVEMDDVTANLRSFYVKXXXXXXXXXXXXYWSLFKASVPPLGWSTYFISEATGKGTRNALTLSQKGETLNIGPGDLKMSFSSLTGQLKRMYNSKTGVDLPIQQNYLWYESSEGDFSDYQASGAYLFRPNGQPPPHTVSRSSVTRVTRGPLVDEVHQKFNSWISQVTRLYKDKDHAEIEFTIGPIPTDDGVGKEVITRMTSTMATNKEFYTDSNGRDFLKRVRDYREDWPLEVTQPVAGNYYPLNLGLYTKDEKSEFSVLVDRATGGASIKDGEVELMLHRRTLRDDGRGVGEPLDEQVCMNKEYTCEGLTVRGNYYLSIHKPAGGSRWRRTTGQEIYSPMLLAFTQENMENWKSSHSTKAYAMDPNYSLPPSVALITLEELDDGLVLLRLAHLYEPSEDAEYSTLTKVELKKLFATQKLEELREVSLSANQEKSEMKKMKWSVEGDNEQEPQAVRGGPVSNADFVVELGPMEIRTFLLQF
As to the kind of experiment: α-mannosidase inhibition assay (p-nitrophenyl α-D-mannopyranoside substrate). In kind it is biochemical. To be noted: Jack bean enzyme; NI = no inhibition. The procedure: as §1, §2, §3

Assay [3] deals with melanoma cell line UACC-62. Details: method as in PMID 24285637, PMID 26928999. To be noted: cited from earlier work.

A value given as a limit tells only on which side of the number the result lay.

On to `COC(=O)C1=C[C@@H](O)[C@@H](O)[C@@H](O[C@@H]2C(C(=O)OC)=C[C@H](O)[C@H](O)[C@H]2O)[C@@H]1Cl` [(−)-21], for which the “α-glucosidase inhibitory potency relative to deoxynojirimycin (DNJ), fold/times” value on α-glucosidase (yeast) was “one-third”. Further, the IC50 in assay [1] and in assay [2] was above 10 mM throughout.

As to `COC(=O)C1=C[C@@H](O)[C@@H](O)[C@@H](O[C@@H]2C(C(=O)OC)=C[C@H](O)[C@H](O)[C@@H]2O)[C@@H]1Cl` [(−)-pericosine E (6), (3R,4R,5R,6R)-methyl 6-chloro-3,4-dihydroxy-5-{[(1R,4S,5S,6S)-4,5,6-trihydroxy-2-(methoxycarbonyl)cyclohex-2-en-1-yl]oxy}cyclohex-1-enecarboxylate], on α-glucosidase (yeast), the “α-glucosidase inhibitory potency relative to deoxynojirimycin (DNJ), fold/times” value is on record as “one-third”. Further, the concentration for half-maximal inhibition (IC50) in assay [1] and in assay [2] was above 10 mM in each case.

With `COC(=O)C1=C[C@@H](O)[C@@H](O)[C@@H](O[C@H]2C(C(=O)OC)=C[C@@H](O)[C@@H](O)[C@@H]2O)[C@@H]1Cl` [(−)-23], the IC50 in assay [1] and in assay [2] was above 10 mM throughout.

For the compound `C=C[C@@H]1C[C@H](C)C[C@H](C)[C@H]1c1c(O)ccn(O[C@@H]2C(C(=O)OC)=C[C@@H](O)[C@@H](O)[C@H]2O)c1=O` [maximiscin], the “inhibition against melanoma cell line UACC-62” value in assay [3] is reported as “potent inhibition”.

In the case of `COC(=O)C1=C[C@H](O)[C@H](O)[C@H](O[C@H]2C(C(=O)OC)=C[C@@H](O)[C@@H](O)[C@@H]2O)[C@H]1Cl` [(+)-21], the concentration for half-maximal inhibition (IC50) in assay [1] and in assay [2] was above 10 mM each time.

With `COC(=O)C1=C[C@H](O)[C@H](O)[C@@H](O)[C@@H]1O[C@H]1[C@@H](O)[C@@H](O)C=C(C(=O)OC)[C@@H]1Cl` [(+)-23], the IC50 in assay [1] and in assay [2] was above 10 mM each time.

As to `COC(=O)C1=C[C@H](O)[C@H](O)[C@H](O[C@H]2C(C(=O)OC)=C[C@@H](O)[C@@H](O)[C@H]2O)[C@H]1Cl` [(+)-pericosine E (6)], the IC50 in assay [1] and in assay [2] was above 10 mM throughout.

`OC[C@H]1NC[C@H](O)[C@@H](O)[C@@H]1O` [Deoxynojirimycin (DNJ), 1-Deoxynojirimycin, reference compound] displayed a half-maximal inhibitory concentration (IC50) in assay [1] of […].

In the case of `OC[C@H]1NC[C@@H](O)[C@@H](O)[C@@H]1O` [Deoxymannojirimycin, reference compound], the IC50 in assay [1] was […].

Regarding `COC(=O)C1=C[C@@H](O)[C@@H](O)[C@@H](O[C@H]2C(C(=O)OC)=C[C@@H](O)[C@@H](O)[C@H]2O)[C@@H]1Cl` [(−)-22], the IC50 in assay [1] and in assay [2] was above 10 mM in each case.

With `COC(=O)C1=C[C@H](O)[C@H](O)[C@H](O)[C@@H]1O[C@H]1[C@@H](O)[C@@H](O)C=C(C(=O)OC)[C@@H]1Cl` [(+)-22], the concentration for half-maximal inhibition (IC50) in assay [1] and in assay [2] was above 10 mM in each case.
